Laboratory results reported in patent US12338266B2 (GENETIC S.P.A., priority 2019, dated 2025).
Entries after “also recorded” stand apart in the source; their conditions may differ.

How the values were obtained:
glucocorticoid receptor = target: T1, glucocorticoid receptor (Homo sapiens, UniProt P04150); details: higher than the parent compound; cited from earlier work
T1 sequence (P04150 1-777): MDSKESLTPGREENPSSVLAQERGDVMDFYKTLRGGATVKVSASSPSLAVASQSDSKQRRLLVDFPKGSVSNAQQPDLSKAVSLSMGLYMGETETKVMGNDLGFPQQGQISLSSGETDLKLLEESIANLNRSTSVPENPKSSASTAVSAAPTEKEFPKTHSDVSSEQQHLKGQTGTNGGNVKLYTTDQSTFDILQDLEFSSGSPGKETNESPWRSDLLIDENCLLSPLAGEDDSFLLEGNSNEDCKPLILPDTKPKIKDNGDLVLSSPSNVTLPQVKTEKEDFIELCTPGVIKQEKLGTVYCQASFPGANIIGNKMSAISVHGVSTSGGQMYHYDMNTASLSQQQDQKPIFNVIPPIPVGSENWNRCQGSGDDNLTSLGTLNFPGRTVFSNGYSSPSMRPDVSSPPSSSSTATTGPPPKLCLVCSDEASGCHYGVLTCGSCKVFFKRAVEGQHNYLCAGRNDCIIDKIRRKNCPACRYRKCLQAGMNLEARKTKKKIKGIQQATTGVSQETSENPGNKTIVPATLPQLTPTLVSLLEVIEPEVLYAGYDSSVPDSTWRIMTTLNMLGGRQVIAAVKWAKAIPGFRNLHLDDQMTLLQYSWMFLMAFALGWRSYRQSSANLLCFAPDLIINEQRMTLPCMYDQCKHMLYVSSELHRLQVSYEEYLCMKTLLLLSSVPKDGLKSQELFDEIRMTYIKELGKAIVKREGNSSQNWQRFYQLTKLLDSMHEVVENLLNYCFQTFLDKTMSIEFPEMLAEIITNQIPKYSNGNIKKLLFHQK

[1] = 10 mg orally once daily at bedtime; cited from earlier work
[2] = system: mice with OVA-induced allergic asthma; assay: Plasma IgE levels by ELISA in OVA-sensitized mice (Protocol-1); type: in vivo, Balb/c mice; details: 1 mg/kg i.p.; FIG. 6C, 7C
Description: Balb/c mice (8-9 weeks old, Charles River, Calco, Italy) were housed in the animal care facility at the Department of Pharmacy of the University of Naples. Italy in a controlled environment (temperature 21±2° C. and humidity 60±10%) and provided with standard rodent chow and water. All animals were allowed to acclimate for four days prior to experiments and were subjected to 12 h light-12 h dark schedule. Each mouse was assigned an identity number and randomtzed to different groups so that all experiments were carried out in a blinded manner. The experimental procedures were approved by the Italian Ministry according to International and National law and policies (EU Directive 2010/63/EU and Italian DL 26/2014 for animal experiments, ARRIVE guidelines and the Basel declaration including the 3R concept). Animal studies are reported in compliance with the ARRIVE guidelines. Balb/c mice is the most widely mouse strain used to study asthma-like features in vivo and to investigate the undedying molecular and cellular mechanisms of allergen sensitization. Mice were treated subcutaneously (s.c.) with 0.4 mL (100 μg) of ovalbumin (OVA) complexed with alum (13 mg mL^−1) (OVA group) at day 0 and 7. Chicken egg-white ovalbumin (OVA: grade V. cat. A5503, Sigma Chemical Co., St. Louis, MO) was dissolved in sterile phosphate buffered saline (PBS) solution (250 μg/1 ml) and Al(OH)3 was added (at 13 mg/ml). This mix was used to induce the allergic sensitization of the animals by subcutaneous injection. OVA was dissolved at 3% in sterile PBS solution and this solution was nebulized (as the immunological challenges). At day 21 mice were exposed to OVA challenge for three days and then sacrificed. This experimental procedure induces in the mice an increase in plasma IgE levels and this effect is by itself sufficient to induce a significant increase in bronchial hyper-responsiveness and pulmonary inflammation, typical hallmarks of asthma. A group of animals was treated s.c. with saline (vehicle group). […] Animals were killed at selected time points by overdose of enflurane and bronchi and blood collected.
Blood was collected by intracardiac puncture using citrate as anticoagulant. Plasma was obtained by centrifugation at 800×g at 4′C for 10 minutes and immediately frozen at −80° C. Total IgE levels were measured by means of ELISA using matched antibody pairs (BD Biosciences Pharmingen San Jose, Calif.).

[3] = system: mice with OVA-induced allergic asthma; assay: Lung hyperreactivity / Penh by whole body plethysmography (Protocol-2); type: in vivo, Balb/c mice; details: for basal Penh measurement (non-challenged with methacholine): FIG. 9B
Description: (§1) Male Balb/c SPF mice (26*2 g, 6 week-old) were purchased from the animal house facilities at the Faculty of Medicine (University of Sāo Paulo, Brazil). They were group-housed in a temperature-controlled room at 22° C. with a 12/12-hour light/dark cycle and allowed free access to food and water. The study is in agreement with the Ethical Principles for Animal Research established by the Brazilian College for Animal Experimentation (COBEA). According to the internal laboratory rules, euthanasia will be performed if severe distress related to the test agents developed during the experiment. Mice were sensitized with two subcutaneous injections of 0.2 ml of OVA/Al(OH)3, with an interval of 7 days (Sham animals received the Al(OH)3 suspension in PBS with no OVA). Chicken egg-white ovalbumin (OVA; grade V, cat. A5503, Sigma Chemical Co., St. Louis, Mo.) was dissolved in sterile phosphate buffered saline (PBS) solution (50 μg/ml) and Al(OH)3 was added (at 8 mg/ml). This mix was used to induce the allergic sensitization of the animals by subcutaneous injection. OVA was dissolved at 1% in sterile PBS solution and this solution was nebulized (as the immunological challenges). Seven days after the second sensitization (i.e., 3rd week), the animals were nebulized twice a week with the 1% OVA solution (Sham and untreated OVA groups were nebulized with PBS) during 20 minutes for the next 4 weeks. Thirty minutes before the challenges (OVA nebulization) and daily during the next 4 weeks, mice were intra-nasally treated (10 μl/animal as 5 μl/nostril) with the respective compounds/vehicle. […] Animals were killed at selected time points by overdose of enflurane and BAL and blood collected.
Airway responsiveness in conscious, spontaneously breathing animals was measured at the end of the 6th week (i.e., after 4 weeks OVA challenges+treatments), 24 h after the last OVA/PBS challenge via whole body plethysmography (Buxco Europe Ltd, Winchester, UK). Experiments were carried out in a quiet room by an investigator who was unaware of the nature of treatments. Aerosolized saline (50 μl/mouse during 60 s) and then the muscarinic agonist metacholine (MCh) at increasing concentrations (3.12, 6.25, 12.5 and 25.0 mg/ml in PBS) was nebulized through an inlet of the main chamber for 3 min each to induce bronchoconstriction and readings were taken and averaged for 6 min following each nebulization. After 20 min. the baseline values usually returned at the end of this period. Enhanced pause (Penh) was measured as an indicator of bronchoconstriction and consequent increase of airway resistance as: Penh=[(expiration time/relaxation time)−1][…].

[4] = system: mice with OVA-induced allergic asthma; assay: Total and differential leukocyte counts in BAL fluid (Protocol-2); type: in vivo, Balb/c mice; details: 4 weeks; for BAL eosinophils (OVA-induced increase): 100 nmol/animal/day intranasal, FIG. 10
Description: as §1
After Penh evaluation, the mice were anesthetized with inhaled isofluorane (5% v/v in O2) and blood samples were collected from the descending abdominal aorta. The mice were then euthanized by exsanguination and bronchoalveolar lavage (BAL) was performed by exposing and cannulating the trachea with a polyethylene tube (1 mm outer diameter) connected to a syringe. The lungs were washed by flushing 300 μL of heparin-containing PBS solution (20 UI/mL). The retrieved BAL lavage aliquots were obtained and the same procedure was repeated four additional times. The samples were centrifuged (1000 g for 10 min) and the cell pellet was resuspended in 200 μL of PBS solution, Total cell counts were determined using a Neubauer chamber, and differential counting was carried out in cytospin (Fanem Mod 2400; Sāo Paulo, Brazil) preparations stained with May-Grünwald dye. Leukocytes were classified based on morphological criteria.

[5] = in vivo; cited from earlier work
[6] = intranasal administration at recommended doses; cited from earlier work

C[C@]12C=CC(=O)C=C1CC[C@@H]1[C@@H]2[C@@H](O)C[C@@]2(C)[C@H]1C[C@H]1O[C@@H](C3CCCCC3)O[C@]12C(=O)CO [Des-ciclesonide, C21-desisobutyryl-ciclesonide]
affinity for the glucocorticoid receptor relative to the parent compound (ciclesonide) (glucocorticoid receptor): 120 times

CC(C)(O)c1ccccc1CC[C@@H](SCC1(CC(=O)[O-])CC1)c1cccc(/C=C/c2ccc3ccc(Cl)cc3n2)c1.[Na+] [Montelukast sodium, (R,E)-2-(1-((1-(3-(2-(7-chloroquinolin-2-yl)vinyl)phenyl)-3-(2-(2-hydroxypropan-2-yl)phenyl)propylthio)-methyl)cyclopropyl)acetic acid monosodium salt]
variables of asthma control (FEV1, daytime and night time symptom scores, as-needed β-agonist use) [1]: improvement in variables of asthma control

CC(C)(O)c1ccccc1CC[C@@H](SCC1(CC(=O)O)CC1)c1cccc(/C=C/c2ccc3ccc(Cl)cc3n2)c1 [montelukast, (R,E)-2-(1-((1-(3-(2-(7-chloroquinolin-2-yl)vinyl)phenyl)-3-(2-(2-hydroxypropan-2-yl)phenyl)propylthio)-methyl)cyclopropyl)acetic acid]
allergen induced plasma IgE increase [2]: did not affect IgE | basal Penh measurement (non-challenged with methacholine) ([3]; 10 nmol/animal/day intranasal, daily for 4 weeks): significantly reduced the basal Penh measurement | basal Penh measurement (non-challenged with methacholine) ([3]; 10 nmol/animal/day intranasal, daily for 4 weeks, listed as Montelukast): slightly decrease the basal (non-challenged with methacholine) response | Penh parameters following methacholine challenge (Emax, AUC) ([3]; 10 nmol/animal/day intranasal, FIG. 9C-D): did not affect the parameters measured following methacholine challenge | direct effects on lung function ([3]; 10 nmol/day/animal intranasal): negligible direct effects on lung function | BAL eosinophils / eosinophil recruitment to the lungs ([4]; 10 nmol/animal/day intranasal, FIG. 11): significantly reduced; also recorded: significant inhibitory effects on eosinophil recruitment to the lungs

CC(C)C(=O)OCC(=O)[C@@]12O[C@H](C3CCCCC3)O[C@@H]1C[C@H]1[C@@H]3CCC4=CC(=O)C=C[C@]4(C)[C@H]3[C@@H](O)C[C@@]12C [ciclesonide, (11β,16α)-16,17-[[(R)-cyclohexylmethylene]bis(oxy)]-11-hydroxy-21-(2-methyl-1-oxopropoxy)pregna-1,4-diene-3,20-dione]
cortisol suppression [5]: comparable with placebo | allergen induced plasma IgE increase [2]: significantly inhibited allergen induced IgE increase | serum concentrations of ciclesonide [6]: negligible serum concentrations | airway responsiveness, Penh (basal, methacholine Emax and AUC) ([3]; 100 nmol/day/animal intranasal, daily for 4 weeks, FIG. 8A-D): Significant reduction of this response; also recorded: significantly reduced | BAL eosinophils (OVA-induced increase) [4]: significantly reduced | BAL eosinophils (OVA-induced increase) ([4]; listed as Ciclesonide): significantly reduced this increase
